Source: patent publication US9511058B2, “Methods for using carboxamide, sulfonamide and amine compounds” (Rigel Pharmaceuticals, Inc., priority 2010, dated 2016)
Counter-ions that a name gives are not always drawn. Values belong to the molecule of their own block, whether it stands above or below them.

Target: AMPK
Experiment: AMPK activation, enzyme-linked immunosorbent assay
Type: biochemical
[1] = compounds of Table 5 (Table 10)

EC50 (compounds of Table 2 (Table 7)): 1 to 5 µM
Compound: O=C(NC1CCN(S(=O)(=O)c2ccc(C(F)(F)F)cc2)CC1)c1ccc2[nH]c3c(c2c1)CN(Cc1ccc(C(F)(F)F)cc1)CC3 [2-23, 2-(4-(trifluoromethyl)benzyl)-N-(1-(4-(trifluoromethyl)phenylsulfonyl)piperidin-4-yl)-2,3,4,5-tetrahydro-1H-pyrido[4,3-b]indole-8-carboxamide]

EC50 (compounds of Table 2 (Table 7)): 10 to 50 µM
Compound: NC(=O)c1ccc(CN2CCc3[nH]c4ccc(C(=O)NC5CCN(Cc6ccc(C(F)(F)F)cc6)CC5)cc4c3C2)cc1 [2-47, 2-(4-carbamoylbenzyl)-N-(1-(4-(trifluoromethyl)benzyl)piperidin-4-yl)-2,3,4,5-tetrahydro-1H-pyrido[4,3-b]indole-8-carboxamide]

EC50 (compounds of Table 1 (Table 6)): < 0.1 µM
Compound: O=C(NC1CCN(Cc2ccncc2)CC1)c1sc2cc(OC3CCN(c4ccc(C(F)(F)F)cc4)CC3)ccc2c1Cl [1-151, 3-chloro-N-(1-(pyridin-4-ylmethyl)piperidin-4-yl)-6-(1-(4-(trifluoromethyl)phenyl)piperidin-4-yloxy)benzo[b]thiophene-2-carboxamide]

EC50 (compounds of Table 1 (Table 6)): 0.1 to 0.5 µM
Compound: O=C(NC1CCN(S(=O)(=O)c2cccnc2)CC1)c1cc2ccc(OC3CCN(c4ccc(C(F)(F)F)cc4)CC3)cc2o1 [1-106, N-(1-(pyridin-3-ylsulfonyl)piperidin-4-yl)-6-(1-(4-(trifluoromethyl)phenyl)piperidin-4-yloxy)benzofuran-2-carboxamide]

EC50 (compounds of Table 2 (Table 7)): 1 to 5 µM
Compound: O=C(NC1CCN(Cc2ccc(C(F)(F)F)cc2)CC1)c1ccc2[nH]c3c(c2c1)CN(Cc1ccccc1)CC3 [2-5, 2-benzyl-N-(1-(4-trifluoromethylbenzyl)piperidin-4-yl)-2,3,4,5-tetrahydro-1H-pyrido[4,3-b]indole-8-carboxamide]

EC50 [1]: < 1 µM
Compound: COc1ccc(CN2CCC(Oc3ccc(C(=O)NC4CCN(Cc5ccccc5)CC4)cc3Cl)CC2)cc1 [5-1, N-(1-benzylpiperidin-4-yl)-3-chloro-4-(1-(4-methoxybenzyl)piperidin-4-yloxy)benzamide]

EC50 (compounds of Table 1 (Table 6)): 0.1 to 0.5 µM
Compound: O=C(NC1CCN(Cc2ccccc2)CC1)c1cc2cc(OC3CCN(Cc4ccc(Cl)cc4)CC3)ccc2o1 [1-72, N-(1-benzylpiperidin-4-yl)-5-(1-(4-chlorobenzyl)piperidin-4-yloxy)benzofuran-2-carboxamide]

EC50 [1]: > 100 µM
Compound: O=C(NC1CCN(c2ccccc2)CC1)c1ccc(OC2CCN(c3ccc(C(F)(F)F)cc3)CC2)c(F)c1 [5-25, 3-fluoro-N-(1-phenylpiperidin-4-yl)-4-(1-(4-(trifluoromethyl)phenyl)piperidin-4-yloxy)benzamide]

EC50 (compounds of Table 1 (Table 6), formate salt): < 0.1 µM
Compound: O=C(NC1CCN(Cc2ccncc2)CC1)c1cc2cc(OC3CCN(c4ccc(C(F)(F)F)cc4)CC3)ccc2o1 [1-105, N-(1-(pyridin-4-ylmethyl)piperidin-4-yl)-5-(1-(4-(trifluoromethyl)phenyl)piperidin-4-yloxy)benzofuran-2-carboxamide, formate salt]

EC50 (compounds of Table 1 (Table 6)): 0.1 to 0.5 µM
Compound: N#Cc1ccc(CN2CCC(Oc3ccc4oc(C(=O)NC5CCN(Cc6ccncc6)CC5)cc4c3)CC2)cc1 [1-79, 5-(1-(4-cyanobenzyl)piperidin-4-yloxy)-N-(1-(pyridin-4-ylmethyl)piperidin-4-yl)benzofuran-2-carboxamide]

EC50 (compounds of Table 1 (Table 6)): 0.1 to 0.5 µM
Compound: O=C(NC1CCN(Cc2ccccc2)CC1)c1cc2cc(OC3CCN(Cc4ccc(F)c(F)c4)CC3)ccc2o1 [1-74, N-(1-benzylpiperidin-4-yl)-5-(1-(3,4-difluorobenzyl)piperidin-4-yloxy)benzofuran-2-carboxamide]

EC50 [1]: < 1 µM
Compound: O=C(NC1CCN(Cc2ccccc2)CC1)c1cc(Cl)c(OC2CCN(Cc3ccc(F)c(F)c3)CC2)c(Cl)c1 [5-76, N-(1-benzylpiperidin-4-yl)-3,5-dichloro-4-(1-(3,4-difluorobenzyl)piperidin-4-yloxy)benzamide]

EC50 (compounds of Table 1 (Table 6)): 0.5 to 1 µM
Compound: O=C(NC1CCN(Cc2ccccn2)CC1)c1cc2ccc(OC3CCN(c4ccc(OC(F)(F)F)cc4)CC3)cc2o1 [1-92, N-(1-(pyridin-2-ylmethyl)piperidin-4-yl)-6-(1-(4-(trifluoromethoxy)phenyl)piperidin-4-yloxy)benzofuran-2-carboxamide]

EC50 (compounds of Table 1 (Table 6)): 0.1 to 0.5 µM
Compound: N#Cc1ccc(N2CCC(Oc3ccc(S(=O)(=O)NC4CCN(Cc5ccncc5)CC4)cn3)CC2)cc1 [1-52, N-(1-(pyridin-4-ylmethyl)piperidin-4-yl)-6-(1-(4-cyanophenyl)piperidin-4-yloxy)pyridine-3-sulfonamide]

EC50 (compounds of Table 4 (Table 9)): 1 to 5 µM
Compound: O=C(N[C@H]1CCN(Cc2ccncc2)C1)c1ccc(C(=O)N2CCN(c3ccc(Cl)cc3)CC2)cn1 [4-5, (S)-5-(4-(4-chlorophenyl)piperazine-1-carbonyl)-N-(1-(pyridin-4-ylmethyl)pyrrolidin-3-yl)picolinamide]

EC50 (compounds of Table 1 (Table 6)): < 0.1 µM
Compound: N#Cc1ccc(CN2CCC(NC(=O)c3cc4ccc(OC5CCN(c6ccc(C(F)(F)F)cc6)CC5)cc4o3)CC2)cc1 [1-90, N-(1-(4-cyanobenzyl)piperidin-4-yl)-6-(1-(4-(trifluoromethyl)phenyl)piperidin-4-yloxy)benzofuran-2-carboxamide]

EC50 [1]: < 1 µM
Compound: O=C(NC1CCN(Cc2ccc(Cl)cc2)CC1)c1ccc(OC2CCN(Cc3ccc(F)c(F)c3)CC2)c(F)c1 [5-71, N-(1-(4-chlorobenzyl)piperidin-4-yl)-4-(1-(3,4-difluorobenzyl)piperidin-4-yloxy)-3-fluorobenzamide]

EC50 [1]: 10 to 20 µM
Compound: O=C(NC1CCN(Cc2ccccc2)CC1)c1ccc(OC2CCN(Cc3ccccc3C(F)(F)F)CC2)c(Cl)c1 [5-24, N-(1-benzylpiperidin-4-yl)-3-chloro-4-(1-(2-(trifluoromethyl)benzyl)piperidin-4-yloxy)benzamide]

EC50 (compounds of Table 1 (Table 6)): < 0.1 µM
Compound: O=C(NC1CCN(Cc2ccc(N3CCOCC3)cc2)CC1)c1ccc(OC2CCN(c3ccc(C(F)(F)F)cc3)CC2)cn1 [1-40, N-(1-(4-morpholinobenzyl)piperidin-4-yl)-5-(1-(4-(trifluoromethyl)phenyl)piperidin-4-yloxy)picolinamide]

EC50 [1]: 1 to 10 µM
Compound: O=C(NC1CCN(Cc2ccccc2)CC1)c1ccc(OC2CCN(Cc3ccccn3)CC2)c(F)c1 [5-39, N-(1-benzylpiperidin-4-yl)-3-fluoro-4-(1-(pyridin-2-ylmethyl)piperidin-4-yloxy)benzamide]

EC50 (compounds of Table 3 (Table 8)): 10 to 100 µM
Compound: O=C(NC1CCNCC1)c1nc2ccc(OC3CCN(c4ccc(C(F)(F)F)cc4)CC3)cc2o1 [3-5, N-(piperidin-4-yl)-6-(1-(4-(trifluoromethyl)phenyl)piperidin-4-yloxy)benzo[d]oxazole-2-carboxamide]

EC50 [1]: 1 to 10 µM
Compound: O=C(NCCCN1CCOCC1)c1ccc(OC2CCN(Cc3ccc(Cl)cc3)CC2)cc1 [5-100, 4-(1-(4-chlorobenzyl)piperidin-4-yloxy)-N-(3-morpholinopropyl)benzamide]

EC50 (compounds of Table 1 (Table 6)): < 0.1 µM
Compound: N#Cc1ccc(CN2CCC(NC(=O)c3cc4ccc(OC5CCN(c6ccc(OC(F)(F)F)cc6)CC5)cc4o3)CC2)cc1 [1-89, N-(1-(4-cyanobenzyl)piperidin-4-yl)-6-(1-(4-(trifluoromethoxy)phenyl)piperidin-4-yloxy)benzofuran-2-carboxamide]

EC50 [1]: < 1 µM
Compound: N#Cc1ccc(CN2CCC(Oc3ccc(C(=O)NC4CCN(Cc5ccncc5)CC4)cc3)CC2)cc1 [5-83, 4-(1-(4-cyanobenzyl)piperidin-4-yloxy)-N-(1-(pyridin-4-ylmethyl)piperidin-4-yl)benzamide]

EC50 (compounds of Table 1 (Table 6)): 0.1 to 0.5 µM
Compound: N#Cc1ccc(CN2CCC(NC(=O)c3ccnc(OC4CCN(c5ccc(C(F)(F)F)cc5)CC4)c3)CC2)cc1 [1-21, N-(1-(4-cyanobenzyl)piperidin-4-yl)-2-(1-(4-(trifluoromethyl)phenyl)piperidin-4-yloxy)isonicotinamide]

EC50 [1]: 10 to 20 µM
Compound: COc1ccc(CN2CCC(Oc3ccc(C(=O)NCCCN4CCOCC4)cc3Cl)CC2)cc1 [5-101, 3-chloro-4-(1-(4-methoxybenzyl)piperidin-4-yloxy)-N-(3-morpholinopropyl)benzamide]

EC50 (compounds of Table 1 (Table 6)): < 0.1 µM
Compound: O=C(NC1CCN(Cc2cccnc2)CC1)c1cc2ccc(OC3CCN(c4ccc(C(F)(F)F)cc4)CC3)cc2o1 [1-96, N-(1-(pyridin-3-ylmethyl)piperidin-4-yl)-6-(1-(4-(trifluoromethyl)phenyl)piperidin-4-yloxy)benzofuran-2-carboxamide]

EC50 (compounds of Table 3 (Table 8)): 10 to 100 µM
Compound: N#Cc1ccc(CN2CCC(NC(=O)c3ccc(C(=O)NC4CCN(Cc5ccccc5)CC4)cc3)CC2)cc1 [3-33, N^1-(1-benzylpiperidin-4-yl)-N^4-(1-(4-cyanobenzyl)piperidin-4-yl)terephthalamide]

EC50 (compounds of Table 4 (Table 9)): < 0.5 µM
Compound: N#Cc1ccc(CN2CCC(NC(=O)c3ccc(C(=O)N4CCN(Cc5ccc(C(F)(F)F)cc5)CC4)cn3)CC2)cc1 [4-3, N-(1-(4-cyanobenzyl)piperidin-4-yl)-5-(4-(4-(trifluoromethyl)benzyl)piperazine-1-carbonyl)picolinamide]

EC50 (compounds of Table 1 (Table 6)): 0.5 to 1 µM
Compound: O=C(NC1CCN(Cc2ccc3ccccc3c2)CC1)c1ccc(OC2CCN(c3ccc(C(F)(F)F)cc3)CC2)cn1 [1-37, N-(1-(naphthalen-2-ylmethyl)piperidin-4-yl)-5-(1-(4-(trifluoromethyl)phenyl)piperidin-4-yloxy)picolinamide]

EC50 (compounds of Table 3 (Table 8)): < 0.1 µM
Compound: N#Cc1ccc(CN2CCC(NC(=O)c3cnc(OC4CCN(c5ccc(C#N)cc5)CC4)s3)CC2)cc1 [3-24, N-(1-(4-cyanobenzyl)piperidin-4-yl)-2-(1-(4-cyanophenyl)piperidin-4-yloxy)thiazole-5-carboxamide]

EC50 (compounds of Table 2 (Table 7)): 1 to 5 µM
Compound: N#Cc1ccc(CN2CCC(NC(=O)c3ccc4[nH]c5c(c4c3)CN(C(=O)OCc3ccccc3)CC5)CC2)cc1 [2-1, benzyl 8-(1-(4-cyanobenzyl)piperidin-4-ylcarbamoyl)-3,4-dihydro-1H-pyrido[4,3-b]indole-2(5H)-carboxylate]

EC50 (compounds of Table 1 (Table 6)): 0.1 to 0.5 µM
Compound: N#Cc1ccc(N2CCC(Oc3ccc(C(=O)NC4CCN(Cc5ccncc5)CC4)nc3)CC2)cc1 [1-1, 5-(1-(4-cyanophenyl)piperidin-4-yloxy)-N-(1-(pyridin-4-ylmethyl)piperidin-4-yl)picolinamide]

EC50 [1]: < 1 µM
Compound: N#Cc1ccc(CN2CCC(Oc3ccc(C(=O)NC4CCN(Cc5ccccn5)CC4)cc3)CC2)cc1 [5-85, 4-(1-(4-cyanobenzyl)piperidin-4-yloxy)-N-(1-(pyridin-2-ylmethyl)piperidin-4-yl)benzamide]
